Data reported in ChEMBL document CHEMBL4028801, “A multifactorial approach to hepatobiliary transporter assessment enables improved therapeutic compound development” (Toxicol Sci, 2013).

Key:
[1] = Ratio of drug concentration at steady state in human at 25 to 50 mg, po QD after 24 hrs to IC50 for human MRP4 overexpressed in Sf9 insect cells; assay type: ADME, organism-based; details: in vivo
[2] = biological target: T1, ATP-binding cassette sub-family C member 4 (Homo sapiens, UniProt O15439); assay: Inhibition of human MRP4 overexpressed in Sf9 cell membrane vesicles assessed as uptake of [3H]-estradiol-17beta-D-glucuronide in presence of ATP and GSH measured after 20 mins by membrane vesicle transport assay; assay type: ADME, cell-based
T1 sequence (O15439 whole entry): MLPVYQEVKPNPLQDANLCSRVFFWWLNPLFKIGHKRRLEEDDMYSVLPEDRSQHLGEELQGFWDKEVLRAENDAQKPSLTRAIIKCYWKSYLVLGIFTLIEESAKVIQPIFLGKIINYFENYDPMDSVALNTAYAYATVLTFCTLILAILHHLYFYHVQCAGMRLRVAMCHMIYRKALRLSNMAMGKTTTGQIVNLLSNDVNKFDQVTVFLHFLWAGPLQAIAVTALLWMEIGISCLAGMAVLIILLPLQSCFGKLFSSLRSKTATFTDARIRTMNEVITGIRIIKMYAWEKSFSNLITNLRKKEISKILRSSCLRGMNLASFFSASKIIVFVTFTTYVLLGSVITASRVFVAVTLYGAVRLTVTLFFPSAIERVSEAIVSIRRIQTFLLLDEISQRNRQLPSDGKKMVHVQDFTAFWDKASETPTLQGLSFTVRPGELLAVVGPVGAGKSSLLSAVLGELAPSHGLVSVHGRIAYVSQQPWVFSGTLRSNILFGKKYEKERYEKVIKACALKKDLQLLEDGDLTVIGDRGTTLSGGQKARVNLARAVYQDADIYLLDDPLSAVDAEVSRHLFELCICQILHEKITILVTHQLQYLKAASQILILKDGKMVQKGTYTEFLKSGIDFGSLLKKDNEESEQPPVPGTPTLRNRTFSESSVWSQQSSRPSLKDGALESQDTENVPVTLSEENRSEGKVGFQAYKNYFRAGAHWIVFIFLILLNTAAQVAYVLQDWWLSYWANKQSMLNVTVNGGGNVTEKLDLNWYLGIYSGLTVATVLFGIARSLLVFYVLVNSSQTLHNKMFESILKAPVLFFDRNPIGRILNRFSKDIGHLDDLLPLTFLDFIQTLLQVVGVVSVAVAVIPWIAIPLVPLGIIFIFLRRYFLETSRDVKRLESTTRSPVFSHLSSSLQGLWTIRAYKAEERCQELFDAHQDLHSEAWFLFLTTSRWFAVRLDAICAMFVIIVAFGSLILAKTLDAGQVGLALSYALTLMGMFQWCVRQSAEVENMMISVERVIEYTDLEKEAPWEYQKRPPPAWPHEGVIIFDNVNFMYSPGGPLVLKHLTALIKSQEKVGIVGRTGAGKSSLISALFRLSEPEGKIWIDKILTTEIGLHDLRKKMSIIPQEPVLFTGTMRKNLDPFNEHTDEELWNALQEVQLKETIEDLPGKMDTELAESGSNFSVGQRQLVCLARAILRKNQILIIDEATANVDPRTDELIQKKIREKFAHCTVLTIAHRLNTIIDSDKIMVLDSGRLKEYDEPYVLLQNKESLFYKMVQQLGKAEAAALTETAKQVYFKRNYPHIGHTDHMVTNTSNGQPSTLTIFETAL

[3] = biological target: ATP-binding cassette sub-family C member 3 (Homo sapiens, UniProt O15438); assay: Inhibition of human MRP3 overexpressed in Sf9 insect cell membrane vesicles assessed as uptake of [3H]-estradiol-17beta-D-glucuronide in presence of ATP and GSH measured after 10 mins by membrane vesicle transport assay; assay type: ADME, cell-based
Chain of ATP-binding cassette sub-family C member 3 (O15438 whole entry): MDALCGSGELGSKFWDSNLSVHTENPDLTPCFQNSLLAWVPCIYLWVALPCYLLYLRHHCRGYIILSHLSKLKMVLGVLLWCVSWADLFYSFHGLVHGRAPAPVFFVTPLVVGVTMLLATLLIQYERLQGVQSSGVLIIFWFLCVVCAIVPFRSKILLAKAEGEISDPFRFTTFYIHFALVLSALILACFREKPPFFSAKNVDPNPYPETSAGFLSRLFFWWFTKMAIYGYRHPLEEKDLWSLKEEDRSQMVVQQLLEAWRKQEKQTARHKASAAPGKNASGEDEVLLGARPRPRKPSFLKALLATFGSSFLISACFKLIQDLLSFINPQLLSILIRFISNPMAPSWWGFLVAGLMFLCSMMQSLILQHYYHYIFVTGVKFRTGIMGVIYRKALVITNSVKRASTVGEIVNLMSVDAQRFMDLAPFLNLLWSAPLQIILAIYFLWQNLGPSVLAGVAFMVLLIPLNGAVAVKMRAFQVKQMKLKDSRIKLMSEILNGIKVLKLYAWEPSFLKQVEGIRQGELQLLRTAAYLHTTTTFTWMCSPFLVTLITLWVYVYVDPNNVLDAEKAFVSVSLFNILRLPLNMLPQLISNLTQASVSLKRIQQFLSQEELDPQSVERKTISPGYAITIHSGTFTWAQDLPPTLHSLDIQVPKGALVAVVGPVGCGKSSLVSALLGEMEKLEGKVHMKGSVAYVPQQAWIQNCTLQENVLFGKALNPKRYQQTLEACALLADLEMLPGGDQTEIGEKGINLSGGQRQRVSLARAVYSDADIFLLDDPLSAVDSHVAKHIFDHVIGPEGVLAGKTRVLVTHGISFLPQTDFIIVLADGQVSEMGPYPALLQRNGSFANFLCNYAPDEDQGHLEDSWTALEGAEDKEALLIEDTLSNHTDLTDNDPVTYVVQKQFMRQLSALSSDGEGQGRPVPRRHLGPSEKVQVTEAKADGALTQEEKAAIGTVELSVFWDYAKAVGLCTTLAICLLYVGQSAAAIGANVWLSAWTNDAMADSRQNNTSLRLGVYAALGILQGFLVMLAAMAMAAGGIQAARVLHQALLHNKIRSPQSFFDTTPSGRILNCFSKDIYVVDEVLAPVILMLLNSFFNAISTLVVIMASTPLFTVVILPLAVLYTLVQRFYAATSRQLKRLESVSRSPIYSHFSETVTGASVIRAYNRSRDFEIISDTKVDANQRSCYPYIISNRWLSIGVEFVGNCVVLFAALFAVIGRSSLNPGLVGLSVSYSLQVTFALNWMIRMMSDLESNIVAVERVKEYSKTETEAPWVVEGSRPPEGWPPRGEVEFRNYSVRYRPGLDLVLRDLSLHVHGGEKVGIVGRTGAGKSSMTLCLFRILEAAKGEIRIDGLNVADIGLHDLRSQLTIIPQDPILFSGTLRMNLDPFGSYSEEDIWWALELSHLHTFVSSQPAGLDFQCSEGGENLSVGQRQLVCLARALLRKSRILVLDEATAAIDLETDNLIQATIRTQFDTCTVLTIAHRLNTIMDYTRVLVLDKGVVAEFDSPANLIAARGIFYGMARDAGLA

[4] = AUC in human at 25 to 50 mg, po QD after 24 hrs; assay type: ADME, organism-based; details: in vivo
[5] = Drug concentration at steady state in human at 25 to 50 mg, po QD after 24 hrs; assay type: ADME, organism-based; details: in vivo, read-out: Css
[6] = Ratio of drug concentration at steady state in human at 25 to 50 mg, po QD after 24 hrs to IC50 for human BSEP overexpressed in Sf9 insect cells; assay type: ADME, organism-based; details: in vivo
Bile salt export pump = Bile salt export pump (Homo sapiens, UniProt O95342); assay: Inhibition of human BSEP overexpressed in Sf9 cell membrane vesicles assessed as uptake of [3H]-taurocholate in presence of ATP measured after 15 to 20 mins by membrane vesicle transport assay; assay type: ADME, cell-based
Chain of Bile salt export pump (O95342 whole entry): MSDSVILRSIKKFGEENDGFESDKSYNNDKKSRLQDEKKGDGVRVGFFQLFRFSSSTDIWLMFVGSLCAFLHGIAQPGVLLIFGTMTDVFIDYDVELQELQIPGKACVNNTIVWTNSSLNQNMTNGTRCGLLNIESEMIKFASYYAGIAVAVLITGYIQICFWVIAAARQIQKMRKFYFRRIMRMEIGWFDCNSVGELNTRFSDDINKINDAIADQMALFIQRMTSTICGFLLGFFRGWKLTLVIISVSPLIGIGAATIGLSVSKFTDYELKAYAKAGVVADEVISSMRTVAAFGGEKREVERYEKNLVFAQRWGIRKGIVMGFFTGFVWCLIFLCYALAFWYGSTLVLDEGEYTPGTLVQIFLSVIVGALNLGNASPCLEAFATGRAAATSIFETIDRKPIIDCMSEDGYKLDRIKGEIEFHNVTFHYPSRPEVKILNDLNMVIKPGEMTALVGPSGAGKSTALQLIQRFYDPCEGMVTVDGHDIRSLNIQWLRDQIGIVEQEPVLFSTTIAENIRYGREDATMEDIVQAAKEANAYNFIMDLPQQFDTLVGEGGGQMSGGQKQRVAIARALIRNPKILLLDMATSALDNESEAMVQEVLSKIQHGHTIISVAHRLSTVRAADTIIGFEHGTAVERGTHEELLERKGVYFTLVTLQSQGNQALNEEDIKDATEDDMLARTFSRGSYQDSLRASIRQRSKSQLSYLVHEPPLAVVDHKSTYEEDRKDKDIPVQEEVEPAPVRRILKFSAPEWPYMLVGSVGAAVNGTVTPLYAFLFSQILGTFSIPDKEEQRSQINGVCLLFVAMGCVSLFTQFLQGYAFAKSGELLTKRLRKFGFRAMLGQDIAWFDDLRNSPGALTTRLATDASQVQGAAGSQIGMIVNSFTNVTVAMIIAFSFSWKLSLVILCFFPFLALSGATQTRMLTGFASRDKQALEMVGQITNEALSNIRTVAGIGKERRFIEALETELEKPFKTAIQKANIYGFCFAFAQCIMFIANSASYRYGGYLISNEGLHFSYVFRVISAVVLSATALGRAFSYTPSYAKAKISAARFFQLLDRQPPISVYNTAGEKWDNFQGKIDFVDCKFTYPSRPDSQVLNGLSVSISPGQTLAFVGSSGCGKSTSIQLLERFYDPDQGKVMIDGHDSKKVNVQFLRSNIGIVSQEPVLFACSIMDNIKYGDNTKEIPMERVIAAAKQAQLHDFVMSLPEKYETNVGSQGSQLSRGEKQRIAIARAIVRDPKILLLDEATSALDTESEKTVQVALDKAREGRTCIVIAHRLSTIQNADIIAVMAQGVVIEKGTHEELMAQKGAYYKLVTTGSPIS

Homo sapiens [7] = assay: Ratio of drug concentration at steady state in human at 0.25 to 20 mg, po after 24 hrs to IC50 for human BSEP overexpressed in Sf9 insect cells; assay type: ADME, organism-based; details: in vivo
[8] = Drug concentration at steady state in human at 0.25 to 20 mg, po QD after 24 hrs; assay type: ADME, organism-based; details: in vivo, read-out: Css
Homo sapiens [9] = assay: Ratio of drug concentration at steady state in human at 0.25 to 20 mg, po after 24 hrs to IC50 for human MRP2 overexpressed in Sf9 insect cells; assay type: ADME, organism-based; details: in vivo
Homo sapiens [10] = assay: Ratio of drug concentration at steady state in human at 0.25 to 20 mg, po after 24 hrs to IC50 for human MRP4 overexpressed in Sf9 insect cells; assay type: ADME, organism-based; details: in vivo
Homo sapiens [11] = assay: Ratio of drug concentration at steady state in human at 0.25 to 20 mg, po after 24 hrs to IC50 for human MRP3 overexpressed in Sf9 insect cells; assay type: ADME, organism-based; details: in vivo
[12] = AUC in human at 0.25 to 20 mg, po QD after 24 hrs; assay type: ADME, organism-based; details: in vivo
[13] = biological target: ATP-binding cassette sub-family C member 2 (Homo sapiens, UniProt Q92887); assay: Inhibition of human MRP2 overexpressed in Sf9 cell membrane vesicles assessed as uptake of [3H]-estradiol-17beta-D-glucuronide in presence of ATP and GSH measured after 20 mins by membrane vesicle transport assay
Chain of ATP-binding cassette sub-family C member 2 (Q92887 whole entry): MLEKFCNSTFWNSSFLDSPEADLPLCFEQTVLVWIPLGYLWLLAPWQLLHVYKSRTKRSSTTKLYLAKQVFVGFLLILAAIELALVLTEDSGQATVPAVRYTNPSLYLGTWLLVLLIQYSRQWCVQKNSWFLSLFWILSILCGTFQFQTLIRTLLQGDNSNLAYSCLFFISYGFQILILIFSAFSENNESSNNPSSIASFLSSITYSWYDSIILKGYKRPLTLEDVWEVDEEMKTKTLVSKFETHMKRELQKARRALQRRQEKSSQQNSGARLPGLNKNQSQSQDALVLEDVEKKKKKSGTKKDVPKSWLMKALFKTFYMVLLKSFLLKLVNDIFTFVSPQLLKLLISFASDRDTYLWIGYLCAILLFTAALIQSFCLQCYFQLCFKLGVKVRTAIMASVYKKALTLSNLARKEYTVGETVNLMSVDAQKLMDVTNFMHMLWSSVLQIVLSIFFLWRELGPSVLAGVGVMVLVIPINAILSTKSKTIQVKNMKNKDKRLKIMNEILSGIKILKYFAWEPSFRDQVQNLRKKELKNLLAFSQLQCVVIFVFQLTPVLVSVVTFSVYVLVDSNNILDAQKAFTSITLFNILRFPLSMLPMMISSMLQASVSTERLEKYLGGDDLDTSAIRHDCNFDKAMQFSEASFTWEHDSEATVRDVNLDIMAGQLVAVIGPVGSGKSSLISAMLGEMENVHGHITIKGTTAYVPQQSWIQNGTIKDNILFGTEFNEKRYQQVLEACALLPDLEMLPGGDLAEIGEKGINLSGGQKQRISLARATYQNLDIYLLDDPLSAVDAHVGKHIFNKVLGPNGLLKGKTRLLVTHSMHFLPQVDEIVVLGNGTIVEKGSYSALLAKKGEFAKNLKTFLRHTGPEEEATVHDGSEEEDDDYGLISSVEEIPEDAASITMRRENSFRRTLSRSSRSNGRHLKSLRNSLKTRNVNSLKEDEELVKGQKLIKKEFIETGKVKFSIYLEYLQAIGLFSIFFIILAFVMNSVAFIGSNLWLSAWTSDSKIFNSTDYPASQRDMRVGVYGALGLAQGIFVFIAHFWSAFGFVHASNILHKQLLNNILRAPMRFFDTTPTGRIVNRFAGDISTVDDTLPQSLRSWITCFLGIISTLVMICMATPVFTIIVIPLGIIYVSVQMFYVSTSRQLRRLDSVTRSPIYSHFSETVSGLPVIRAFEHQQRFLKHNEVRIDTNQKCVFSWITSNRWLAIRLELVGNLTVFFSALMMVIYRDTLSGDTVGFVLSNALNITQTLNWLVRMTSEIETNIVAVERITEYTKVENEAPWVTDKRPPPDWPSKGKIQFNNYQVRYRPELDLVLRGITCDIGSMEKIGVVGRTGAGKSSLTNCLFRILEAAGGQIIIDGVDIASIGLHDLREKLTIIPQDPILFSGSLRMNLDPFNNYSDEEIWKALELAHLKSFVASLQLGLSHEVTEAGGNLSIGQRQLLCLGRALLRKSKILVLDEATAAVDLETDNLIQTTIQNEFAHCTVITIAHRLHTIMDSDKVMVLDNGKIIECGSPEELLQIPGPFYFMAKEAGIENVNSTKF

[14] = Ratio of drug concentration at steady state in human at 100 to 300 mg, po QD after 24 hrs to IC50 for human MRP3 overexpressed in Sf9 insect cells; assay type: ADME, organism-based; details: in vivo
[15] = Ratio of drug concentration at steady state in human at 100 to 300 mg, po QD after 24 hrs to IC50 for human BSEP overexpressed in Sf9 insect cells; assay type: ADME, organism-based; details: in vivo
[16] = Cmax in human at 100 to 300 mg, po QD after 24 hrs; assay type: ADME, organism-based; details: in vivo
[17] = Ratio of drug concentration at steady state in human at 100 to 300 mg, po QD after 24 hrs to IC50 for human MRP2 overexpressed in Sf9 insect cells; assay type: ADME, organism-based; details: in vivo
[18] = Drug concentration at steady state in human at 100 to 300 mg, po QD after 24 hrs; assay type: ADME, organism-based; details: in vivo, read-out: Css
[19] = Ratio of drug concentration at steady state in human at 100 to 300 mg, po QD after 24 hrs to IC50 for human MRP4 overexpressed in Sf9 insect cells; assay type: ADME, organism-based; details: in vivo
[20] = Drug concentration at steady state in human at 3 mg, po QD after 24 hrs; assay type: ADME, organism-based; details: in vivo, read-out: Css
[21] = Ratio of drug concentration at steady state in human at 3 mg, po after 24 hrs to IC50 for human BSEP overexpressed in Sf9 insect cells; assay type: ADME, organism-based; details: in vivo
[22] = AUC in human at 3 mg, po QD after 24 hrs; assay type: ADME, organism-based; design: time < 24 hr, dose 3 mg, route oral; details: in vivo
[23] = Ratio of drug concentration at steady state in human at 3 mg, po after 24 hrs to IC50 for human MRP4 overexpressed in Sf9 insect cells; assay type: ADME, organism-based; details: in vivo

With COc1cc(C)c(/C=C/C(C)=C/C=C/C(C)=C/C(=O)O)c(C)c1C [ACITRETIN] as the molecule, how does the Ratio [1] read?
Its Ratio is 0.005.

What about the IC50 [2] of the same molecule?
The IC50 was 49 µM.

And the IC50 [3]?
Its IC50 is greater than 133 µM.

What about the AUC at 24 h [4] of the same molecule?
The AUC at 24 h was 6.13 µM·h.

What about the concentration at 24 h [5] of the same molecule?
The concentration at 24 h was 255 nM.

What about the Ratio [6] of the same molecule?
Its Ratio is 0.007.

What about the IC50 (Bile salt export pump) of the same molecule?
Its IC50 is 38.2 µM.

Which IC50 [2] does the source give for CO[C@H]1C[C@@H]2CC[C@@H](C)[C@@](O)(O2)C(=O)C(=O)N2CCCC[C@H]2C(=O)O[C@H]([C@H](C)C[C@@H]2CC[C@@H](OCCO)[C@H](OC)C2)CC(=O)[C@H](C)/C=C(\C)[C@@H](O)[C@@H](OC)C(=O)[C@H](C)C[C@H](C)/C=C/C=C/C=C/1C [EVEROLIMUS] here?
Its IC50 is 95 µM.

And the Ratio (Homo sapiens [7])?
The Ratio was 0.012.

What about the IC50 [3] of the same molecule?
Its IC50 is 84 µM.

And the concentration at 24 h [8]?
The concentration at 24 h was 23 nM.

And the Ratio (Homo sapiens [9])?
The Ratio was 0.002.

What about the Ratio (Homo sapiens [10]) of the same molecule?
The Ratio was 0.

What about the Ratio (Homo sapiens [11]) of the same molecule?
Its Ratio is 0.

And the AUC at 24 h [12]?
The AUC at 24 h was 0.561 µM·h.

And the IC50 (Bile salt export pump)?
Its IC50 is 2 µM.

What about the IC50 [13] of the same molecule?
Its IC50 is 11.3 µM.

For CC(C)/N=c1\cc2n(-c3ccc(Cl)cc3)c3ccccc3nc-2cc1Nc1ccc(Cl)cc1 [CLOFAZIMINE], which Ratio [14] is on record?
The Ratio was 0.004.

And the IC50 [2]?
Its IC50 is 44.5 µM.

And the IC50 [3]?
The IC50 was 21 µM.

And the Ratio [15]?
Its Ratio is 0.007.

What about the Cmax [16] of the same molecule?
Its Cmax is 2.11 ng/mL.

What about the Ratio [17] of the same molecule?
Its Ratio is 0.008.

What about the concentration at 24 h [18] of the same molecule?
The concentration at 24 h was 88 nM.

What about the IC50 [13] of the same molecule?
The IC50 was 10.4 µM.

What about the Ratio [19] of the same molecule?
The Ratio was 0.002.

For C[C@]12CCC(=O)C=C1[C@@H]1C[C@@H]1[C@H]1[C@@H]3[C@@H]4C[C@@H]4[C@@]4(CCC(=O)O4)[C@@]3(C)CC[C@@H]12 [DROSPIRENONE], which concentration at 24 h [20] is on record?
The concentration at 24 h was 91 nM.

And the IC50 [2]?
The IC50 was 37.9 µM.

What about the IC50 [3] of the same molecule?
Its IC50 is greater than 133 µM.

What about the Ratio [21] of the same molecule?
The Ratio was 0.006.

What about the AUC at 24 h [22] of the same molecule?
Its AUC at 24 h is 2.18 µM·h.

What about the IC50 (Bile salt export pump) of the same molecule?
The IC50 was 16.4 µM.

What about the Ratio [23] of the same molecule?
The Ratio was 0.002.
